This assay can be described thus: Predicted binding affinity for beta secretase by linear interaction energy continuum electrostatics.

As for `COCCCNC(=O)c1cc(NC(=O)Nc2cc(C(F)(F)F)cc(C(F)(F)F)c2)ccc1N(C)C` [5-[3-(3,5-Bis-trifluoromethyl-phenyl)-ureido]-2-dimethylamino-N-(3-methoxy-propyl)-benzamide], the Ki was 9.4 µM.

Values taken from BindingDB's records for doi:10.1021/jm050499d (University of Zürich, 2005).
